According to the supplement of paper PMC10307832:

Assays:
Test in all cases: relative viability (nuclei count vs DMSO), 5 days (fraction); higher = more cells survive
Dactolisib + Foretinib = compound: Cn1c(=O)n(-c2ccc(C(C)(C)C#N)cc2)c2c3cc(-c4cnc5ccccc5c4)ccc3ncc21 [Dactolisib] + COc1cc2c(Oc3ccc(NC(=O)C4(C(=O)Nc5ccc(F)cc5)CC4)cc3F)ccnc2cc1OCCCN1CCOCC1 [Foretinib] (partner 0.25 µM)
How it was run: (§1)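 Relative viability was taken as the ratio of nuclei in treated wells to nuclei in vehicle wells. Lung cancer cell lines in 1536-well plates received compounds by pin tool one day after seeding, either one drug alone or a fixed anchor-drug dose plus five library-drug doses (not always all listed) in √10 steps. Nuclei were counted on 4× images after 5 days of treatment, and values are medians of duplicate plates.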

AZ505 + Pemetrexed = compound: C1CCC(CC1)N(CCNCCC2=C3C(=C(C=C2)O)NC(=O)CO3)C(=O)CCNCCC4=CC(=C(C=C4)Cl)Cl [AZ505] + Nc1nc2[nH]cc(CCc3ccc(C(=O)N[C@@H](CCC(=O)O)C(=O)O)cc3)c2c(=O)[nH]1 [Pemetrexed] (partner 0.2 µM)
How it was run: as §1

Dactolisib + Pemetrexed = compound: Cn1c(=O)n(-c2ccc(C(C)(C)C#N)cc2)c2c3cc(-c4cnc5ccccc5c4)ccc3ncc21 [Dactolisib] + Nc1nc2[nH]cc(CCc3ccc(C(=O)N[C@@H](CCC(=O)O)C(=O)O)cc3)c2c(=O)[nH]1 [Pemetrexed] (partner 0.2 µM)
How it was run: as §1

Dactolisib + Trametinib = compound: Cn1c(=O)n(-c2ccc(C(C)(C)C#N)cc2)c2c3cc(-c4cnc5ccccc5c4)ccc3ncc21 [Dactolisib] + CC(=O)Nc1cccc(-n2c(=O)n(C3CC3)c(=O)c3c(Nc4ccc(I)cc4F)n(C)c(=O)c(C)c32)c1 [Trametinib] (partner 0.02 µM)
How it was run: as §1

Cell Line | relative viability (Dactolisib + Foretinib; first compound 0.002 µM) | relative viability (Dactolisib + Foretinib; first compound 0.006325 µM) | relative viability (Dactolisib + Foretinib; first compound 0.02 µM) | relative viability (Dactolisib + Foretinib; first compound 0.06325 µM) | relative viability (Dactolisib + Foretinib; first compound 0.2 µM) | relative viability (AZ505 + Pemetrexed; first compound 0.08 µM) | relative viability (AZ505 + Pemetrexed; first compound 0.253 µM) | relative viability (AZ505 + Pemetrexed; first compound 0.8 µM) | relative viability (AZ505 + Pemetrexed; first compound 2.53 µM) | relative viability (AZ505 + Pemetrexed; first compound 8 µM) | relative viability (Dactolisib + Pemetrexed; first compound 0.002 µM) | relative viability (Dactolisib + Pemetrexed; first compound 0.006325 µM) | relative viability (Dactolisib + Pemetrexed; first compound 0.02 µM) | relative viability (Dactolisib + Pemetrexed; first compound 0.06325 µM) | relative viability (Dactolisib + Pemetrexed; first compound 0.2 µM) | relative viability (Dactolisib + Trametinib; first compound 0.002 µM) | relative viability (Dactolisib + Trametinib; first compound 0.006325 µM) | relative viability (Dactolisib + Trametinib; first compound 0.02 µM) | relative viability (Dactolisib + Trametinib; first compound 0.06325 µM) | relative viability (Dactolisib + Trametinib; first compound 0.2 µM)
NCI-H1623 | 0.907 | 0.882 | 0.768 | 0.596 | 0.418 | – | – | – | – | – | – | – | – | – | – | – | – | – | – | –
Calu-6 | 0.826 | 0.915 | 0.879 | 0.531 | 0.543 | – | – | – | – | – | – | – | – | – | – | – | – | – | – | –
LC-2-ad | 1.08 | 0.917 | 0.839 | 0.545 | 0.551 | 0.279 | 0.278 | 0.294 | 0.306 | 0.258 | 0.263 | 0.302 | 0.276 | 0.264 | 0.272 | 0.838 | 0.883 | 0.99 | 0.969 | 0.863
CAL-12T | 1.25 | 1.09 | 0.972 | 0.898 | 0.241 | 1.08 | 1.2 | 1.26 | 1.29 | 1.46 | 1.23 | 1.17 | 1.17 | 0.412 | 0.325 | 0.343 | 0.312 | 0.248 | 0.213 | 0.184
RERF-LC-KJ | 0.852 | 0.826 | 0.87 | 0.527 | 0.399 | 0.448 | 0.454 | 0.505 | 0.449 | 0.434 | 0.488 | 0.479 | 0.46 | 0.433 | 0.434 | 0.86 | 0.902 | 0.772 | 0.407 | 0.467
NCI-H1650 | 1.08 | 1.05 | 0.919 | 0.781 | 0.531 | 0.352 | 0.396 | 0.351 | 0.402 | 0.446 | 0.342 | 0.418 | 0.385 | 0.383 | 0.299 | 0.63 | 0.614 | 0.503 | 0.339 | 0.22
BEN | 0.898 | 0.632 | 0.647 | 0.57 | 0.422 | 0.682 | 0.678 | 0.871 | 0.746 | 0.786 | 0.714 | 0.757 | 0.603 | 0.639 | 0.434 | 0.925 | 0.952 | 0.959 | 0.61 | 0.411
EMC-BAC-2 | 1.04 | 0.976 | 0.984 | 0.501 | 0.484 | 0.412 | 0.491 | 0.417 | 0.499 | 0.451 | 0.424 | 0.39 | 0.448 | 0.456 | 0.416 | 0.897 | 0.866 | 0.839 | 0.461 | 0.375
LU99A | 0.742 | 0.75 | 0.582 | 0.386 | 0.312 | 0.199 | 0.22 | 0.19 | – | 0.199 | 0.152 | 0.197 | 0.2 | 0.178 | 0.18 | 0.527 | 0.493 | 0.4 | 0.286 | 0.192
ABC-1 | 1.03 | 1.11 | 0.665 | 0.427 | 0.5 | – | – | – | – | – | – | – | – | – | – | – | – | – | – | –
NCI-H1299 | 1.09 | 1.1 | 1.11 | 0.982 | 1.06 | – | – | – | – | – | – | – | – | – | – | – | – | – | – | –
EBC-1 | 0.102 | 0.0977 | 0.103 | 0.103 | 0.0903 | – | – | – | – | – | – | – | – | – | – | – | – | – | – | –
NCI-H1648 | – | – | – | – | – | – | 0.743 | 0.679 | 0.79 | 0.953 | 0.779 | 0.739 | 0.896 | 0.837 | 0.52 | 0.467 | 0.434 | 0.647 | 0.387 | 0.24
NCI-H1792 | – | – | – | – | – | 0.702 | 0.509 | 0.609 | 1.01 | 0.901 | 0.625 | 0.473 | 0.313 | 0.109 | 0.0622 | 0.498 | 0.407 | 0.267 | 0.174 | 0.0814
HCC-44 | – | – | – | – | – | 0.683 | 0.643 | 0.659 | 0.638 | 0.673 | 0.609 | 0.645 | 0.596 | 0.695 | 0.672 | 1.14 | 1.13 | 1.08 | 0.952 | 0.737
A549 | 1.03 | 0.84 | 0.678 | 0.202 | 0.21 | – | – | – | – | – | – | – | – | – | – | – | – | – | – | –
NCI-H1563 | 0.919 | 0.885 | 0.913 | 0.654 | 0.651 | 0.703 | 0.782 | 0.875 | 0.771 | 0.769 | 0.797 | 0.751 | 0.755 | 0.628 | 0.512 | – | – | – | – | –
NCI-H522 | – | – | – | – | – | 1 | 1.04 | 1.03 | 1.22 | 0.808 | 1.08 | 0.774 | 1.11 | 0.927 | 0.851 | 0.69 | 0.678 | 0.921 | 0.504 | 0.512
IA-LM | 1.28 | 1.07 | 0.837 | 0.497 | 0.453 | – | – | – | – | – | – | – | – | – | – | – | – | – | – | –
NCI-H1703 | – | 0.389 | 0.381 | 0.281 | 0.325 | – | – | – | – | – | – | – | – | – | – | – | – | – | – | –
NCI-H727 | 0.906 | 0.882 | 0.762 | 0.4 | 0.425 | – | – | – | – | – | – | – | – | – | – | – | 0.42 | 0.358 | 0.401 | 0.373
